Tests used:
[1] = system: rat retinal photoreceptor cells; assay: Pathological examination (damage score) of retinal photoreceptor cells in rats treated with different MNU dosages
[2] = system: rat retinal photoreceptor; assay: Electroretinogram of rats treated with different MNU dosages; conditions: for Number of Eyes with extinguished electroretinogram: n = 10

CN(N=O)C(N)=O [MNU, N-methyl-N-nitrosourea]
minimum dosage that could cause damage to the entire outer nuclear layer cell of rat retinal [1]: 40 mg/kg
Damage score of rat retinal photoreceptor cells ([1]; MNU 30 mg/kg, 12 h): 0.20 ± 0.42
Damage score of rat retinal photoreceptor cells ([1]; MNU 30 mg/kg, 1 d): 0.40 ± 0.52
Damage score of rat retinal photoreceptor cells ([1]; MNU 30 mg/kg, 3 d): 0.40 ± 0.52
Damage score of rat retinal photoreceptor cells ([1]; MNU 30 mg/kg, 7 d): 0.20 ± 0.42
Damage score of rat retinal photoreceptor cells ([1]; MNU 30 mg/kg, 10 d): 0
Damage score of rat retinal photoreceptor cells ([1]; MNU 35 mg/kg, 12 h): 0.20 ± 0.42
Damage score of rat retinal photoreceptor cells ([1]; MNU 35 mg/kg, 1 d): 0.60 ± 0.52
Damage score of rat retinal photoreceptor cells ([1]; MNU 35 mg/kg, 3 d): 0.80 ± 0.42
Damage score of rat retinal photoreceptor cells ([1]; MNU 35 mg/kg, 7 d): 0.40 ± 0.52
Damage score of rat retinal photoreceptor cells ([1]; MNU 35 mg/kg, 10 d): 0
Damage score of rat retinal photoreceptor cells ([1]; MNU 40 mg/kg, 12 h): 1.00 ± 0.67
Damage score of rat retinal photoreceptor cells ([1]; MNU 40 mg/kg, 1 d): 2.20 ± 1.03
Damage score of rat retinal photoreceptor cells ([1]; MNU 40 mg/kg, 3 d): 4.60 ± 3.10
Damage score of rat retinal photoreceptor cells ([1]; MNU 40 mg/kg, 7 d): 7.60 ± 6.29
Damage score of rat retinal photoreceptor cells ([1]; MNU 40 mg/kg, 10 d): 7.40 ± 6.44
Damage score of rat retinal photoreceptor cells ([1]; MNU 45 mg/kg, 12 h): 1.6 ± 0.52
Damage score of rat retinal photoreceptor cells ([1]; MNU 45 mg/kg, 1 d): 4.00 ± 2.31
Damage score of rat retinal photoreceptor cells ([1]; MNU 45 mg/kg, 3 d): 6.80 ± 5.27
Damage score of rat retinal photoreceptor cells ([1]; MNU 45 mg/kg, 7 d): 9.60 ± 5.95
Damage score of rat retinal photoreceptor cells ([1]; MNU 45 mg/kg, 10 d): 9.20 ± 6.20
Damage score of rat retinal photoreceptor cells ([1]; MNU 50 mg/kg, 12 h): 2.40 ± 1.43
Damage score of rat retinal photoreceptor cells ([1]; MNU 50 mg/kg, 1 d): 6.80 ± 5.27
Damage score of rat retinal photoreceptor cells ([1]; MNU 50 mg/kg, 3 d): 10.04 ± 5.06
Damage score of rat retinal photoreceptor cells ([1]; MNU 50 mg/kg, 7 d): 11.20 ± 5.27
Damage score of rat retinal photoreceptor cells ([1]; MNU 50 mg/kg, 10 d): 11.20 ± 5.27
initial dosage that could cause maximum decrease of a-wave and b-wave amplitudes of electroretinogram [2]: 40 mg/kg
lowest dosage which could shorten the a-wave and b-wave latent period of rats electroretinogram to the greatest extent [2]: 40 mg/kg
a-wave amplitude of electroretinogram ([2]; MNU 30 mg/kg, 12 h): 42.24 ± 7.71
a-wave latent period of electroretinogram ([2]; MNU 30 mg/kg, 12 h): 17.97 ± 2.50
b-wave amplitude of electroretinogram ([2]; MNU 30 mg/kg, 12 h): 195.8 ± 33.45
b-wave latent period of electroretinogram ([2]; MNU 30 mg/kg, 12 h): 73.7 ± 6.94
Number of Eyes with extinguished electroretinogram ([2]; MNU 30 mg/kg, 12 h): 0
a-wave amplitude of electroretinogram ([2]; MNU 30 mg/kg, 1 d): 34.10 ± 6.35
a-wave latent period of electroretinogram ([2]; MNU 30 mg/kg, 1 d): 17.82 ± 2.59
b-wave amplitude of electroretinogram ([2]; MNU 30 mg/kg, 1 d): 153.6 ± 28.76
b-wave latent period of electroretinogram ([2]; MNU 30 mg/kg, 1 d): 70.41 ± 6.11
Number of Eyes with extinguished electroretinogram ([2]; MNU 30 mg/kg, 1 d): 0
a-wave amplitude of electroretinogram ([2]; MNU 30 mg/kg, 3 d): 33.14 ± 9.15
a-wave latent period of electroretinogram ([2]; MNU 30 mg/kg, 3 d): 17.44 ± 2.40
b-wave amplitude of electroretinogram ([2]; MNU 30 mg/kg, 3 d): 132.0 ± 24.85
b-wave latent period of electroretinogram ([2]; MNU 30 mg/kg, 3 d): 67.42 ± 7.05
Number of Eyes with extinguished electroretinogram ([2]; MNU 30 mg/kg, 3 d): 0
a-wave amplitude of electroretinogram ([2]; MNU 30 mg/kg, 7 d): 41.11 ± 10.14
a-wave latent period of electroretinogram ([2]; MNU 30 mg/kg, 7 d): 17.66 ± 2.55
b-wave amplitude of electroretinogram ([2]; MNU 30 mg/kg, 7 d): 156.5 ± 34.85
b-wave latent period of electroretinogram ([2]; MNU 30 mg/kg, 7 d): 70.28 ± 6.02
Number of Eyes with extinguished electroretinogram ([2]; MNU 30 mg/kg, 7 d): 0
a-wave amplitude of electroretinogram ([2]; MNU 30 mg/kg, 10 d): 44.17 ± 11.13
a-wave latent period of electroretinogram ([2]; MNU 30 mg/kg, 10 d): 17.30 ± 2.24
b-wave amplitude of electroretinogram ([2]; MNU 30 mg/kg, 10 d): 188.7 ± 27.7
b-wave latent period of electroretinogram ([2]; MNU 30 mg/kg, 10 d): 70.31 ± 7.29
Number of Eyes with extinguished electroretinogram ([2]; MNU 30 mg/kg, 10 d): 0
a-wave amplitude of electroretinogram ([2]; MNU 35 mg/kg, 12 h): 40.34 ± 8.37
a-wave latent period of electroretinogram ([2]; MNU 35 mg/kg, 12 h): 17.32 ± 5.87
b-wave amplitude of electroretinogram ([2]; MNU 35 mg/kg, 12 h): 185.3 ± 23.41
b-wave latent period of electroretinogram ([2]; MNU 35 mg/kg, 12 h): 73.61 ± 6.37
Number of Eyes with extinguished electroretinogram ([2]; MNU 35 mg/kg, 12 h): 0
a-wave amplitude of electroretinogram ([2]; MNU 35 mg/kg, 1 d): 33.20 ± 12.11
a-wave latent period of electroretinogram ([2]; MNU 35 mg/kg, 1 d): 16.98 ± 2.46
b-wave amplitude of electroretinogram ([2]; MNU 35 mg/kg, 1 d): 107.52 ± 17.38
b-wave latent period of electroretinogram ([2]; MNU 35 mg/kg, 1 d): 73.12 ± 6.69
Number of Eyes with extinguished electroretinogram ([2]; MNU 35 mg/kg, 1 d): 0
a-wave amplitude of electroretinogram ([2]; MNU 35 mg/kg, 3 d): 30.38 ± 9.61
a-wave latent period of electroretinogram ([2]; MNU 35 mg/kg, 3 d): 16.83 ± 2.62
b-wave amplitude of electroretinogram ([2]; MNU 35 mg/kg, 3 d): 104.88 ± 21.83
b-wave latent period of electroretinogram ([2]; MNU 35 mg/kg, 3 d): 68.15 ± 6.68
Number of Eyes with extinguished electroretinogram ([2]; MNU 35 mg/kg, 3 d): 0
a-wave amplitude of electroretinogram ([2]; MNU 35 mg/kg, 7 d): 36.75 ± 7.28
a-wave latent period of electroretinogram ([2]; MNU 35 mg/kg, 7 d): 17.77 ± 2.25
b-wave amplitude of electroretinogram ([2]; MNU 35 mg/kg, 7 d): 135.44 ± 22.58
b-wave latent period of electroretinogram ([2]; MNU 35 mg/kg, 7 d): 73.37 ± 7.73
Number of Eyes with extinguished electroretinogram ([2]; MNU 35 mg/kg, 7 d): 0
a-wave amplitude of electroretinogram ([2]; MNU 35 mg/kg, 10 d): 40.76 ± 8.92
a-wave latent period of electroretinogram ([2]; MNU 35 mg/kg, 10 d): 17.46 ± 2.41
b-wave amplitude of electroretinogram ([2]; MNU 35 mg/kg, 10 d): 168.7 ± 32.14
b-wave latent period of electroretinogram ([2]; MNU 35 mg/kg, 10 d): 73.51 ± 5.61
Number of Eyes with extinguished electroretinogram ([2]; MNU 35 mg/kg, 10 d): 0
a-wave amplitude of electroretinogram ([2]; MNU 40 mg/kg, 12 h): 17.18 ± 15.90
a-wave latent period of electroretinogram ([2]; MNU 40 mg/kg, 12 h): 10.53 ± 9.18
b-wave amplitude of electroretinogram ([2]; MNU 40 mg/kg, 12 h): 54.40 ± 46.33
b-wave latent period of electroretinogram ([2]; MNU 40 mg/kg, 12 h): 41.09 ± 35.82
Number of Eyes with extinguished electroretinogram ([2]; MNU 40 mg/kg, 12 h): 4
a-wave amplitude of electroretinogram ([2]; MNU 40 mg/kg, 1 d): 9.44 ± 12.38
a-wave latent period of electroretinogram ([2]; MNU 40 mg/kg, 1 d): 7.02 ± 9.15
b-wave amplitude of electroretinogram ([2]; MNU 40 mg/kg, 1 d): 23.09 ± 30.15
b-wave latent period of electroretinogram ([2]; MNU 40 mg/kg, 1 d): 27.85 ± 36.29
Number of Eyes with extinguished electroretinogram ([2]; MNU 40 mg/kg, 1 d): 6
a-wave amplitude of electroretinogram ([2]; MNU 40 mg/kg, 3 d): 3.62 ± 7.66
a-wave latent period of electroretinogram ([2]; MNU 40 mg/kg, 3 d): 3.17 ± 6.69
b-wave amplitude of electroretinogram ([2]; MNU 40 mg/kg, 3 d): 12.23 ± 26.02
b-wave latent period of electroretinogram ([2]; MNU 40 mg/kg, 3 d): 12.20 ± 4.24
Number of Eyes with extinguished electroretinogram ([2]; MNU 40 mg/kg, 3 d): 8
a-wave amplitude of electroretinogram ([2]; MNU 40 mg/kg, 7 d): 4.23 ± 9.27
a-wave latent period of electroretinogram ([2]; MNU 40 mg/kg, 7 d): 3.37 ± 7.15
b-wave amplitude of electroretinogram ([2]; MNU 40 mg/kg, 7 d): 13.14 ± 27.85
b-wave latent period of electroretinogram ([2]; MNU 40 mg/kg, 7 d): 12.33 ± 26.05
Number of Eyes with extinguished electroretinogram ([2]; MNU 40 mg/kg, 7 d): 8
a-wave amplitude of electroretinogram ([2]; MNU 40 mg/kg, 10 d): 9.54 ± 12.89
a-wave latent period of electroretinogram ([2]; MNU 40 mg/kg, 10 d): 6.64 ± 8.61
b-wave amplitude of electroretinogram ([2]; MNU 40 mg/kg, 10 d): 24.25 ± 31.58
b-wave latent period of electroretinogram ([2]; MNU 40 mg/kg, 10 d): 27.31 ± 35.56
Number of Eyes with extinguished electroretinogram ([2]; MNU 40 mg/kg, 10 d): 6
a-wave amplitude of electroretinogram ([2]; MNU 45 mg/kg, 12 h): 0
a-wave latent period of electroretinogram ([2]; MNU 45 mg/kg, 12 h): 6.60 ± 9.55
b-wave amplitude of electroretinogram ([2]; MNU 45 mg/kg, 12 h): 0
b-wave latent period of electroretinogram ([2]; MNU 45 mg/kg, 12 h): 25.08 ± 8.55
Number of Eyes with extinguished electroretinogram ([2]; MNU 45 mg/kg, 12 h): 6
a-wave amplitude of electroretinogram ([2]; MNU 45 mg/kg, 1 d): 0
a-wave latent period of electroretinogram ([2]; MNU 45 mg/kg, 1 d): 0
b-wave amplitude of electroretinogram ([2]; MNU 45 mg/kg, 1 d): 0
b-wave latent period of electroretinogram ([2]; MNU 45 mg/kg, 1 d): 0
Number of Eyes with extinguished electroretinogram ([2]; MNU 45 mg/kg, 1 d): 10
a-wave amplitude of electroretinogram ([2]; MNU 45 mg/kg, 3 d): 0
a-wave latent period of electroretinogram ([2]; MNU 45 mg/kg, 3 d): 0
b-wave amplitude of electroretinogram ([2]; MNU 45 mg/kg, 3 d): 0
b-wave latent period of electroretinogram ([2]; MNU 45 mg/kg, 3 d): 0
Number of Eyes with extinguished electroretinogram ([2]; MNU 45 mg/kg, 3 d): 10
a-wave amplitude of electroretinogram ([2]; MNU 45 mg/kg, 7 d): 0
a-wave latent period of electroretinogram ([2]; MNU 45 mg/kg, 7 d): 0
b-wave amplitude of electroretinogram ([2]; MNU 45 mg/kg, 7 d): 0
b-wave latent period of electroretinogram ([2]; MNU 45 mg/kg, 7 d): 0
Number of Eyes with extinguished electroretinogram ([2]; MNU 45 mg/kg, 7 d): 10
a-wave amplitude of electroretinogram ([2]; MNU 45 mg/kg, 10 d): 4.89 ± 10.48
a-wave latent period of electroretinogram ([2]; MNU 45 mg/kg, 10 d): 6.47 ± 7.33
b-wave amplitude of electroretinogram ([2]; MNU 45 mg/kg, 10 d): 11.31 ± 23.93
b-wave latent period of electroretinogram ([2]; MNU 45 mg/kg, 10 d): 14.42 ± 30.46
Number of Eyes with extinguished electroretinogram ([2]; MNU 45 mg/kg, 10 d): 8
a-wave amplitude of electroretinogram ([2]; MNU 50 mg/kg, 12 h): 0
a-wave latent period of electroretinogram ([2]; MNU 50 mg/kg, 12 h): 0
Number of Eyes with extinguished electroretinogram ([2]; MNU 50 mg/kg, 12 h): 10
a-wave amplitude of electroretinogram ([2]; MNU 50 mg/kg, 1 d): 0
a-wave latent period of electroretinogram ([2]; MNU 50 mg/kg, 1 d): 0
Number of Eyes with extinguished electroretinogram ([2]; MNU 50 mg/kg, 1 d): 10
a-wave amplitude of electroretinogram ([2]; MNU 50 mg/kg, 3 d): 0
a-wave latent period of electroretinogram ([2]; MNU 50 mg/kg, 3 d): 0
Number of Eyes with extinguished electroretinogram ([2]; MNU 50 mg/kg, 3 d): 10
a-wave amplitude of electroretinogram ([2]; MNU 50 mg/kg, 7 d): 0
a-wave latent period of electroretinogram ([2]; MNU 50 mg/kg, 7 d): 0
Number of Eyes with extinguished electroretinogram ([2]; MNU 50 mg/kg, 7 d): 10
a-wave amplitude of electroretinogram ([2]; MNU 50 mg/kg, 10 d): 0
a-wave latent period of electroretinogram ([2]; MNU 50 mg/kg, 10 d): 0
Number of Eyes with extinguished electroretinogram ([2]; MNU 50 mg/kg, 10 d): 10

From patent US20090022757A1, “Method for treating photoreceptor cell degeneration” (priority 2007, published 2009)
